Experimental findings from patent publication US8236826B2, “Diarylether derivatives as antitumor agents” (Otsuka Pharmaceutical Co., Ltd., priority 2005, dated 2012) are described below.

The subject of data set [1] is human chronic myelogenous leukemia cells (KU812). Put plainly: Anti-proliferative effect on human chronic myelogenous leukemia cells, MTT assay. The data set is classed as cell-based. The settings on record: 120 h, cultured 5 days with compound. As to the method:
(§1) Anti-proliferative effect of test compounds on human chronic myelogenous leukemia cells (KU812) was determined by an MTT assay in accordance with the method described in Singh A K et al. (Cancer Lett. 1996 Oct. 1; 107(1): 109-15). To describe more specifically, KU812 cells were seeded on RPMI 1640 medium containing 10% fetal bovine serum of a 96-well microplate, cultured at 37° C. for 24 hours in the presence of a 5% carbon dioxide gas (CO2). Thereafter, a test compound was added to the wells and the cells were cultured for a further 5 days. After the incubation, 10 μl of 5 mg/mL MTT ([…]) was added to the wells. After the cells were cultured for 4 hours, 100 μl of 0.01N HCl containing 10% SDS (sodium dodecyl sulfate) was added to the wells, which was further cultured overnight. Subsequently, OD was measured at a measurement wavelength of 570 nm and a reference wavelength of 690 nm to obtain the difference (A) in OD. Furthermore, OD of a control well (containing no cells) was measured at a measurement wavelength of 570 nm and a reference wavelength of 690 nm to obtain the difference (B) in OD. The difference (A−B) was regarded as the cell proliferation activity of each of the wells. […]

Data set [2] concerns human stomach cancer cells (MKN45). Put plainly: Anti-proliferative effect on human stomach cancer cells, sulforhodamine B method. The settings on record: MKN-45. It counts as cell-based. The text has this: (§2) Anti-proliferative effect of test compounds on human hepatic cancer cells (HuH-7), human lung cancer cells (EBC-1), human colorectal cancer cells (HCT116), human prostatic cancer cells (22Rv1), human pancreatic cancer cells (MIA PaCa-2), human stomach cancer cells (MKN45), human breast cancer cells (ZR-75-1) was checked by a sulforhodamine B method in accordance with Skehan P et al. (J. Natl. Cancer Inst. 1990 Jul. 4; 82(13): 1107-12). Explanation will be made taking HuH-7 cells as an example.
(§3) HuH-7 cells were seeded on DMEM medium (Dulbeco's modified Eagle Medium) containing 10% fetal bovine serum of a 96-well microplate and cultured at 37° C. for 24 hours in the presence of 5% carbon dioxide gas (CO2). Thereafter, a test compound was added to the wells and the cells were cultured for a further 5 days. […]
(§4) To each of the wells, a 1% aqueous acetic acid solution containing 0.4% sulforhodamine B was added and the wells were allowed to stand still at room temperature for 20 to 30 minutes. […] Subsequently, OD (optical density) was measured at a measurement wavelength of 492 nm and a reference wavelength of 690 nm to obtain the difference (A) in OD thus measured. Furthermore, the OD of a control well (containing no cells) was measured at a measurement wavelength of 492 nm and a reference wavelength of 690 nm to obtain the difference (B) in OD. […]
On the technique in general: The SRB assay estimates cell density from bound dye.

Data set [3] has as its system human acute myelogenous leukemia cells (KG-1). Put plainly: Anti-proliferative effect on human acute myelogenous leukemia cells, MTT assay. It counts as cell-based. The settings on record: KG-1 cells. How it is done: [The source words this procedure for another cell line and reports this cell line under the same test.] as §1
Background: Tetrazolium assays rely on reduction of a dye to a coloured formazan, in cell work by metabolically active cells.

Data set [4] concerns human colorectal cancer cells (HCT116). Put plainly: Anti-proliferative effect on human colorectal cancer cells, sulforhodamine B method. The settings on record: HCT-116. It counts as cell-based.
Excerpt: as §2, §3, §4

Data set [5] deals with human pancreatic cancer cells (MIA PaCa-2). Put plainly: Anti-proliferative effect on human pancreatic cancer cells, sulforhodamine B method. The data set is classed as cell-based. The settings on record: MIA PaCa-2 cells.
Excerpt: as §2, §3, §4

Data set [6] has as its system human lung cancer cells (EBC-1). In words: Anti-proliferative effect on human lung cancer cells, sulforhodamine B method. The data set is classed as cell-based. The settings on record: EBC-1 cells.
Excerpt: as §2, §3, §4

Data set [7] relates to human multiple myeloma cells (IM-9). In words: Anti-proliferative effect on human multiple myeloma cells, MTT assay. It counts as cell-based. The settings on record: IM-9 cells. How it is done:
[The source words this procedure for another cell line and reports this cell line under the same test.] as §1

Data set [8] has as its system human renal cancer cells (Caki-2). In words: Anti-proliferative effect on human renal cancer cells, sulforhodamine B method. The settings on record: Caki-2 cells. The data set is classed as cell-based.
In data set [9] the test system is human prostatic cancer cells (22Rv1). Put plainly: Anti-proliferative effect on human prostatic cancer cells, sulforhodamine B method. It counts as cell-based. The settings on record: 22Rv1 cells.
Excerpt: as §2, §3, §4

Data set [10] relates to human breast cancer cells (ZR-75-1). Put plainly: Anti-proliferative effect on human breast cancer cells, sulforhodamine B method. The data set is classed as cell-based. The conditions noted are these: ZR-75-1 cells.
Excerpt: as §2, §3, §4

Data set [11] concerns human hepatic cancer cells (HuH-7). Put plainly: Anti-proliferative effect on human hepatic cancer cells, sulforhodamine B method. It counts as cell-based. The settings on record: 120 h, HuH-7 cells, cultured 5 days with compound.
Excerpt: as §2, §3, §4

Data set [12] deals with Human hepatic cancer cells HuH-7. Put plainly: Anti-tumor effect on HuH-7 cells transplanted into SCID mice. The data set is classed as in vivo. The settings on record: 100 mg/kg/day orally once a day for 9 days, HuH-7 tumor in SCID mice. As to the method: Pharmacological Test 2 Anti-Cancer Effect […] on Hepatic Cancer Cells HuH-7
Human hepatic cancer cells HuH-7 were transplanted into SCID mice (a group of 6 female mice). Anti-tumor effect of test compounds according to the present invention was checked. To describe more specifically, the cancer cells were cultured in advance and a cell suspension solution containing the cancer cells in a concentration of 2.5×10^7 cells/mL was prepared. Then, 0.2 mL of the cell suspension solution was injected into the right axillary region of each of the mice to transplant the cancer cells. In this manner, cancer-bearing mice were prepared. […] Next day after completion of administration, the volume of a tumor was measured. The ratio in volume of a tumor at the time of grouping relative to that measured next day after completion of administration was calculated to obtain a relative tumor volume of each group. Then, the ratio (T/C %) in relative tumor volume of […] (administrated with a test compound) was calculated and used as an index of the effect. Relative tumor volume=tumor volume measured on the next day of completion of administration/tumor volume measured at the time of grouping (T/C %)=(an average value of relative tumor volume of test compound administration group)/(an average value of relative tumor volume of a control group)×100

The test system of data set [13] is human lymphoma cells (U937). Put plainly: Cell proliferation suppression activity on human lymphoma cells, MTT assay. The data set is classed as cell-based. The conditions noted are these: applied dose 10 nM. How it is done:
[The source words this procedure for another cell line and reports this cell line under the same test.] as §1

In data set [14] the test system is human Burkitt's lymphoma cells (Daudi). In words: Cell proliferation suppression activity on human Burkitt's lymphoma cells, MTT assay. The data set is classed as cell-based. The conditions noted are these: applied dose 10 nM. How it is done:
[The source words this procedure for another cell line and reports this cell line under the same test.] as §1

Usually IC50 stands for the concentration needed to halve the response being measured. In general, melting point refers to the temperature of the solid-liquid transition.

Take `O=C(Nc1ccc(Oc2ccc(CCC(=O)N3CCN(Cc4ccc5c(c4)OCO5)CC3)cc2)nc1)c1ccc(C(F)(F)F)cc1` [Example 1039, N-(6-{4-[3-(4-piperonylpiperazin-1-yl)-3-oxopropyl]phenoxy}pyridin-3-yl)-4-trifluoromethylbenzamide]: the IC50 in [1], in [2], in data set [3], in data set [4], in data set [5] and in [6] was less than 100 nM throughout. Further, the IC50 in [7] was less than 100 nM; in data set [8] it was less than 100 nM; in data set [9] it was less than 100 nM; in data set [10], less than 1000 nM; in [11], less than 100 nM.
Turning to `Cc1cc(N(C)CC(=O)N2CCN(Cc3ccc4c(c3)OCO4)CC2)ccc1Oc1ccc(NC(=O)c2ccc(C(F)(F)F)cc2)cn1` [Example 1503, N-[6-(4-{[2-(4-piperonylpiperazin-1-yl)-2-oxoethyl]methylamino}-2-methylphenoxy)pyridin-3-yl]-4-trifluoromethylbenzamide], the “T/C % (relative tumor volume, test group vs control group)” value in data set [12] is given as less than 50%. The IC50 in [1], in data set [2], in data set [3], in data set [4], in [5] and in data set [6] was less than 100 nM each time. Besides, the IC50 in data set [7], in data set [8], in [9], in [10] and in data set [11] was less than 100 nM in each case. For the same compound, the “U937 (T/C %) cell proliferation suppression activity” value in data set [13] was less than 70%. The “Daudi (T/C %) cell proliferation suppression activity” value in data set [14] is on record as less than 70%.
Compound `Cc1cc(N(C)CC(=O)N2CCN(Cc3ccc4c(c3)OCO4)CC2)ccc1Oc1ccc(NC(=O)c2ccc(-n3cccc3)cc2)cn1` [Example 2711, N-[6-(4-{[2-(4-piperonylpiperazin-1-yl)-2-oxoethyl]methylamino}-2-methylphenoxy)pyridin-3-yl]-4-pyrrole-1-ylbenzamide] registered a melting point of 163.1 to 166.5 °C.
Compound `CCN(CC(=O)N1CCN(Cc2ccc3c(c2)OCO3)CC1)c1ccc(Oc2ccc(NS(=O)(=O)c3ccc(C(F)(F)F)cc3)cn2)c(F)c1` [Example 2712, N-[6-(4-{[2-(4-piperonylpiperazin-1-yl)-2-oxoethyl]ethylamino}-2-fluorophenoxy)pyridin-3-yl]-4-trifluoromethylbenzenesulfonamide] showed a melting point of 177.8 to 180.1 °C.
